The record followed here is PMC11786100, “Chronic GIPR agonism results in pancreatic islet GIPR functional desensitisation” (Molecular Metabolism, 2025).

Assay [1] relates to β2-adrenergic receptor. Kind of assay: Ex vivo islet heterologous desensitisation, isoproterenol rechallenge cAMP. The format is cell-based, mouse. Particulars: 24-hour pre-treatment with GIP108 (1 μM); dispersed islets, cADDis, n=3. Here is the method:
Primary cultures of mouse hypothalamic neurons and dispersed pancreatic islets were transduced with the Green Up cADDis biosensor (Montana Molecular, US). Pancreatic islets from CAMPER^Pdx−1-CreERT2 and CAMPER^Som-Cre mice were not transduced. Cells were pre-treated with peptides as specified, dissolved in culture media. Following 4 h or overnight incubation and a 1-hour washout period, cells were imaged using an epifluorescence microscope at baseline (t = 3 min), following peptide addition (t = 10 min, unless specified otherwise), and following 3-isobutyl-1-methylxanthine (IBMX) (500 μM) and forskolin (FSK) (50 μM) addition (t = 3 min) to maximally stimulate the sensor. In pre-treatment experiments, islet cell fluorescence was normalised to the IBMX/FSK response which was set as 100%. In non-pre-treatment experiments, islet and neuronal cell fluorescence was normalised to both the baseline and IBMX/FSK response. The area-under-the-curve (AUC) for each cell was quantified. […]
cAMP quantification from the raw islet/neuronal images was performed using Fiji v1.54f (NIH). […] The fluorescence intensity of each ROI was measured at each time point. In pre-treatment experiments, islet cell fluorescence was normalised to the maximal IBMX/FSK response which was set as 100%. […] The AUC during peptide stimulation for each cell was quantified. […]

The test system of assay [2] is HFD-induced obese mice. The assay can be described thus: Chronic GIP108 administration to HFD-induced obese mice. Particulars: for body weight / food intake: n = 9–10/group. The format is in vivo, mouse. The procedure:
(§1) In all in vivo studies, mice were randomised by body weight into groups. Mice received a 50 μL subcutaneous injection of saline (0.9% sodium chloride) or peptide at a specified dose, diluted in saline. Peptide dosing was in nmol per kg of total body weight. For the assessment of the chronic effects of GIP108, mice were injected daily for 15 days. Body composition was measured by EchoMRI on day −1 and day 15. An intraperitoneal glucose tolerance test (IPGTT) (2 g/kg) was conducted on day 14, following 6 h of fasting and 2 h after peptide injection. Non-fasting plasma leptin (ab199082, Abcam, UK), adiponectin (ab226900, Abcam, UK) and amino acids (ab65347, Abcam, UK) were measured on day 16. For the assessments of in vivo GIPR desensitisation, mice were injected at 17:00 with vehicle or GIP108 (30 nmol/kg) prior to an acute food intake study/IPGTT/insulin bleeds conducted the following day. Full details of the in vivo studies are provided in the supplementary methods.
HFD-induced obese mice (mean starting weight of 43.4 g) received daily injection of saline, GIP108 (30 nmol/kg) and GIP108 (100 nmol/kg) (n=9-10/group) for 15 days. Mice were injected between 16:00 and 17:00, before the beginning of the natural feeding period. Food intake and body weight were measured daily for the entirety of the study. Fat mass and lean mass were calculated on day -1 and day 15. An intraperitoneal glucose tolerance test (IPGTT) was conducted on day 14. On this day, mice received their daily injection of peptide at midday rather than between 16:00 and 17:00. The mice were culled on day 16 via decapitation to allow for collection of large volumes of blood for plasma analysis.
(§2) Mice were fasted at 08:00. For all studies, 20% glucose was administered at 14:00, with the injection volume adjusted to the body weight of the mouse such that each mouse received glucose at 2 g/kg. To assess effects of GIP108 on day 14 of the chronic study, mice were dosed with saline or GIP108 at a specified dose at 12:00. […] Blood glucose measurements were taken via tail vein venesection at baseline, t=15, t=30, t=60, t=90 and t=120 mins. Glucose AUC is calculated using y=0. Glucose readings were measured in mmol/L using the same GlucoRx glucometer.
Body composition was measured using an EchoMRI^TM machine. This allows for the measurement of lean mass, fat mass and water mass. The mass was recorded in grams. Mice were restrained in a red Perspex tube which was then inserted into the EchoMRI^TM machine. Each scan took 160 seconds. The tube was cleaned between animals to minimise stress.
(§3) Leptin, adiponectin and amino acids were quantified following chronic GIP108 administration. Plasma amino acids were measured using the Abcam L-amino acid assay kit (ab65347, Abcam, UK). Plasma adiponectin was measured using the Abcam mouse adiponectin ELISA kit (ab226900, Abcam, UK). Plasma leptin was measured using the Abcam mouse leptin ELISA kit (ab199082, Abcam, UK). All assays were performed according to the manufacturer’s protocol and were read using the SpectraMax i3x Microplate Reader (Molecular Devices, US).

The test system of assay [3] is lean and HFD-induced obese mice. Kind of assay: In vivo GIPR desensitisation: IPGTT and insulin bleeds. More on the design: species or system mouse. The procedure: as §1, §2
Mice were fasted at 08:00. At 14:00, mice received an intraperitoneal injection with 20% glucose, with the injection volume adjusted to the body weight of the mouse such that each mouse received glucose at 2 g/kg. […] Blood samples were taken via tail vein venesection at baseline and t=15 minutes following injection.
as §3

The mark [4] stands for this setting: 30 nmol/kg daily s.c. over two weeks.
[5] abbreviates: 100 nmol/kg daily s.c. over two weeks, EchoMRI.
The mark [6] stands for this setting: 100 nmol/kg daily s.c. over two weeks.
[7] abbreviates: 30 or 100 nmol/kg daily s.c., fed state 16 h after last injection.

`CC[C@H](C)[C@H](NC(=O)[C@H](CO)NC(=O)[C@H](Cc1ccc(O)cc1)NC(=O)[C@H](CC(=O)O)NC(=O)[C@H](CO)NC(=O)[C@@H](NC(=O)[C@H](Cc1ccccc1)NC(=O)[C@@H](NC(=O)CNC(=O)[C@H](CCC(=O)O)NC(=O)C(C)(C)NC(=O)[C@@H](N)Cc1ccc(O)cc1)[C@@H](C)O)[C@@H](C)CC)C(=O)N[C@@H](C)C(=O)N[C@@H](CC(C)C)C(=O)N[C@@H](CC(=O)O)C(=O)N[C@@H](CCCCN)C(=O)N[C@H](C(=O)N[C@@H](Cc1c[nH]cn1)C(=O)N[C@@H](CCC(N)=O)C(=O)N[C@@H](CCC(N)=O)C(=O)N[C@@H](CC(=O)O)C(=O)N[C@@H](Cc1ccccc1)C(=O)N[C@H](C(=O)N[C@@H](CC(N)=O)C(=O)N[C@@H](Cc1c[nH]c2ccccc12)C(=O)N[C@@H](CC(C)C)C(=O)N[C@@H](CC(C)C)C(=O)N[C@@H](C)C(=O)N[C@@H](CCC(N)=O)C(=O)N[C@@H](CCCCN)C(=O)NCC(=O)N[C@@H](CCCCNC(=O)CC[C@H](NC(=O)CCCCCCCCCCCCCCCCCCC(=O)O)C(=O)O)C(=O)N[C@@H](CCCCN)C(=O)N[C@@H](CC(N)=O)C(=O)N[C@@H](CC(=O)O)C(=O)N[C@@H](Cc1c[nH]c2ccccc12)C(=O)N[C@@H](CCCCN)C(=O)N[C@@H](Cc1c[nH]cn1)C(=O)N[C@@H](CC(N)=O)C(=O)N[C@H](C(=O)N[C@H](C(=O)N[C@@H](CCC(N)=O)C(=O)O)[C@@H](C)O)[C@@H](C)CC)C(C)C)[C@@H](C)CC` [GIP108]: the “cAMP response to isoproterenol (1 μM) after GIP108 pre-treatment” value in assay [1] is “remained intact”. In assay [2] (30 nmol/kg daily s.c. over two weeks, EchoMRI), the fat mass result was “not 30 nmol/kg”. Further, in assay [2] (setting [4]), the body weight entry is given as “had no effect on body weight” and the food intake result is listed as “not 30 nmol/kg”. In assay [2] (setting [5]), the fat mass result was “significantly lowered” and the lean mass entry is listed as “without reductions in lean mass”. In addition, in assay [2] (setting [6]), the body weight entry is recorded as “significantly lowered” and the food intake entry is on record as “significantly lowered”. The intraperitoneal glucose tolerance entry in assay [2] (30 and 100 nmol/kg daily s.c., IPGTT 2 g/kg on day 14, 2 h after injection) is “dose-dependent improvement”. Moreover, the fasting glucose result in assay [2] (30 and 100 nmol/kg daily s.c., day 14, 2 h after injection) is recorded as “dose-dependent improvement”. In assay [2] (setting [7]), the plasma adiponectin entry is given as “increased plasma adiponectin”, the “plasma amino acid levels” value is recorded as “had no impact” and the plasma leptin result is given as “reduced plasma leptin”. In assay [3] (GIP108 30 nmol/kg s.c. 21 h prior to IPGTT, lean and HFD-induced obese mice, n = 14–16), the “effect of GIP108 pre-treatment on hGIP (50 nmol/kg) improvement of glucose tolerance” value is given as “ability to improve glucose tolerance was reduced”. In addition, in assay [3] (GIP108 30 nmol/kg s.c. 21 h prior, hGIP 50 nmol/kg, 15 min, lean mice, n = 8), the “plasma insulin response to GIP/glucose administration after GIP108 pre-treatment” value is reported as “blunted”.
